Experiments:
renal hypertensive dogs = assay: Antihypertensive activity in conscious renal hypertensive dogs (systolic arterial blood pressure, indirect method on the tail); format: in vivo; settings: for maximum systolic blood pressure drop / time of maximum systolic blood pressure drop / blood pressure drop after seven hours: dose of 2 mg/kg; for blood pressure drop after seven hours: seven hours after administration
Protocol: The antihypertensive activity of the compounds of the invention was shown in representative tests on spontaneous hypertensive rats and in renal hypertensive dogs. In representative experiments with renal hypertensive dogs, effective amounts(1 to 4 mg/kg) of compounds of examples 3, 4, 5, 6, 8, 13, 14 and 15 were administered p.o. to the conscious hypertensive animals. The systolic arterial blood pressure was measured by the indirect method on the tail before and 1, 3, 5 and 7 hours after treatment.
The drop of the systolic blood pressure ranged between 20 and 70 mm Hg, depending on the specific compound tested and on the time at which the blood pressure was observed. In general the antihypertensive effect started about 3 hours after treatment and the maximum effect was still persistent 7 hours after treatment.

[1] = Acute toxicity, LD50 p.o.; settings: mouse, in vivo, po
[2] = system: spontaneous hypertensive rats (MHR: Milano hypertensive rats); assay: Antihypertensive activity in spontaneous hypertensive rats (systolic blood pressure); format: in vivo; settings: dose of 5 mg/kg

| Structure (SMILES) | maximum systolic blood pressure drop (renal hypertensive dogs) | time of maximum systolic blood pressure drop (renal hypertensive dogs) | blood pressure drop after seven hours (renal hypertensive dogs) | LD50 [1] | drop of the systolic blood pressure (renal hypertensive dogs; 1 mg/kg p.o.) | drop of the systolic blood pressure (renal hypertensive dogs; 4 mg/kg p.o.) | blood pressure drop [2] |
| --- | --- | --- | --- | --- | --- | --- | --- |
| NNc1nncc2ccccc12 [hydralazine, 1-hydrazinophthalazine, reference compound] | 41 mm Hg | about one | 29 mm Hg | – | – | – | – |
| Cc1ccc(C)n1Nc1ccc(N2CCOCC2)nn1 [Example 3, N-(2,5-Dimethyl-1H-pyrrol-1-yl)-6-morpholino-3-pyridazineamine] | 52 mm Hg | about three | 48 mm Hg | ~800 mg/kg | 50 mm Hg | 70 mm Hg | 38 mm Hg |
